Experimental data taken from patent publication US6403794B2, “Substituted 2-amino-4-alkylamino-1,3,5-triazines as herbicides” (Bayer Aktiengesellschaft, priority 1996, dated 2002).

Key:
Format in all cases: in vivo
Veronica [1] = experiment: Post-emergence test; conditions: greenhouse, 250 g of ai./ha, after three weeks
Protocol: (§1) Solvent: 5 parts by weight of acetone
(§2) Emulsifier: 1 part by weight of alkylaryl polyglycol ether
(§3) To produce a suitable preparation of active compound, 1 part by weight of active compound is mixed with the stated amount of solvent, the stated amount of emulsifier is added and the concentrate is diluted with water to the desired concentration.
(§4) Test plants which have a height of 5-15 cm are sprayed with the preparation of active compound such that the particular amounts of active compounds desired are applied per unit area. The concentration of the spray liquor is chosen so that the particular amounts of active compound desired are applied in 1000 l of water/ha.
(§5) After three weeks, the degree of damage to the plants is scored visually in % damage, in comparison to the untreated control.
(§6) 0%=no effect (like untreated control)

Echinochloa = experiment: Post-emergence test; conditions: greenhouse, 250 g of ai./ha, after three weeks
Protocol: as §1, §2, §3, §4, §5, §6

Wheat [2] = experiment: Post-emergence test; conditions: greenhouse, 250 g of ai./ha, after three weeks
Protocol: as §1, §2, §3, §4, §5, §6

Ipomoea = experiment: Post-emergence test; conditions: greenhouse, 250 g of ai./ha, after three weeks
Protocol: as §1, §2, §3, §4, §5, §6

weeds [3] = experiment: Post-emergence test
Protocol: as §1, §2, §3, §4, §5, §6

Abutilon [4] = experiment: Post-emergence test; conditions: greenhouse, after three weeks
Protocol: as §1, §2, §3, §4, §5, §6

Datura = experiment: Post-emergence test; conditions: greenhouse, 250 g of ai./ha, after three weeks
Protocol: as §1, §2, §3, §4, §5, §6

Alopecurus [5] = experiment: Pre-emergence test; conditions: greenhouse, after three weeks
Protocol: as §1, §2, §3
(§7) Seeds of the test plants are sown in normal soil. After about 24 hours, the soil is watered with the preparation of active compound. The amount of water per unit area is advantageously kept constant. The concentration of active compound in the preparation is immaterial, only the application rate of active compound per unit area matters.
(§8) After three weeks, the degree of damage to the plants is scored visually in % damage in comparison to the development of the untreated control.
as §6

Galium [6] = experiment: Pre-emergence test; conditions: greenhouse, after three weeks
Protocol: as §1, §2, §3, §7, §8, §6

weeds [7] = experiment: Pre-emergence test
Protocol: as §1, §2, §3, §7, §8, §6

Abutilon [8] = experiment: Pre-emergence test; conditions: Abutilon, 504 h, greenhouse, after three weeks, read-out: degree of damage to the plants (% damage), Abutilon; for pest or weed control at 1000 g/ha: 1000 g of ai./ha
Protocol: as §1, §2, §3, §7, §8, §6

Maize = experiment: Pre-emergence test; conditions: greenhouse, 500 g of ai./ha, after three weeks
Protocol: as §1, §2, §3, §7, §8, §6

Digitaria = experiment: Pre-emergence test; conditions: greenhouse, 500 g of ai./ha, after three weeks
Protocol: as §1, §2, §3, §7, §8, §6

Matricaria = experiment: Pre-emergence test; conditions: greenhouse, 500 g of ai./ha, after three weeks
Protocol: as §1, §2, §3, §7, §8, §6

Cotton = experiment: Pre-emergence test; conditions: greenhouse, 500 g of ai./ha, after three weeks
Protocol: as §1, §2, §3, §7, §8, §6

Galium [9] = experiment: Post-emergence test; conditions: greenhouse, 1000 g of ai./ha, after three weeks
Protocol: as §1, §2, §3, §4, §5, §6

Amaranthus [10] = experiment: Post-emergence test; conditions: Amaranthus, 504 h, greenhouse, 1000 g of ai./ha, after three weeks, read-out: degree of damage to the plants (% damage), Amaranthus
Protocol: as §1, §2, §3, §4, §5, §6

Setaria [11] = experiment: Post-emergence test; conditions: Setaria, 504 h, greenhouse, 1000 g of ai./ha, after three weeks, read-out: degree of damage to the plants (% damage), Setaria
Protocol: as §1, §2, §3, §4, §5, §6

Xanthium [12] = experiment: Post-emergence test; conditions: greenhouse, 1000 g of ai./ha, after three weeks
Protocol: as §1, §2, §3, §4, §5, §6

Veronica [13] = experiment: Pre-emergence test; conditions: greenhouse, 500 g of ai./ha, after three weeks
Protocol: as §1, §2, §3, §7, §8, §6

Wheat [14] = experiment: Pre-emergence test; conditions: greenhouse, 500 g of ai./ha, after three weeks
Protocol: as §1, §2, §3, §7, §8, §6

Solanum = experiment: Pre-emergence test; conditions: greenhouse, 500 g of ai./ha, after three weeks
Protocol: as §1, §2, §3, §7, §8, §6

Viola = experiment: Pre-emergence test; conditions: greenhouse, 500 g of ai./ha, after three weeks
Protocol: as §1, §2, §3, §7, §8, §6

Amaranthus [15] = experiment: Pre-emergence test; conditions: Amaranthus, 504 h, greenhouse, 1000 g of ai./ha, after three weeks, read-out: degree of damage to the plants (% damage), Amaranthus
Protocol: as §1, §2, §3, §7, §8, §6

Setaria [16] = experiment: Pre-emergence test; conditions: greenhouse, 1000 g of ai./ha, after three weeks
Protocol: as §1, §2, §3, §7, §8, §6

Chenopodium = experiment: Pre-emergence test; conditions: greenhouse, 500 g of ai./ha, after three weeks
Protocol: as §1, §2, §3, §7, §8, §6

Alopecurus [17] = experiment: Post-emergence test; conditions: greenhouse, 1000 g of ai./ha, after three weeks
Protocol: as §1, §2, §3, §4, §5, §6

Cyperus = experiment: Post-emergence test; conditions: greenhouse, 1000 g of ai./ha, after three weeks
Protocol: as §1, §2, §3, §4, §5, §6

Avena fatua = experiment: Post-emergence test; conditions: greenhouse, 1000 g of ai./ha, after three weeks
Protocol: as §1, §2, §3, §4, §5, §6

Sinapis [18] = experiment: Post-emergence test; conditions: greenhouse, 1000 g of ai./ha, after three weeks
Protocol: as §1, §2, §3, §4, §5, §6

Xanthium [19] = experiment: Pre-emergence test; conditions: greenhouse, 1000 g of ai./ha, after three weeks
Protocol: as §1, §2, §3, §7, §8, §6

Sinapis [20] = experiment: Pre-emergence test; conditions: greenhouse, 1000 g of ai./ha, after three weeks
Protocol: as §1, §2, §3, §7, §8, §6

Question: What does the source list for CCC(CCc1ccccc1)Nc1nc(N)nc(C(C)(C)F)n1 (racemic) [Example 1, (R/S)-2-amino-4-(1-fluoro-1-methyl-ethyl)-6-(1-ethyl-3-phenyl-propylamino)-1,3,5-triazine]?
Answer: degree of damage to the plants (% damage), Veronica (Veronica [1]): 100%; degree of damage to the plants (% damage), Echinochloa (Echinochloa): 80%; degree of damage to the plants (% damage), Wheat (Wheat [2]): 0%; degree of damage to the plants (% damage), Ipomoea (Ipomoea): 100%; activity against weeds (weeds [3]): strong activity; degree of damage to the plants (% damage), Abutilon (Abutilon [4]; 250 g of ai./ha): 100%; degree of damage to the plants (% damage), Datura (Datura): 100%; degree of damage to the plants (% damage), Alopecurus (Alopecurus [5]; 500 g of ai./ha): 100%; degree of damage to the plants (% damage), Galium (Galium [6]; 500 g of ai./ha): 100%; activity against weeds (weeds [7]): strong activity; pest or weed control at 500 g/ha (Abutilon [8]; 500 g of ai./ha): 100%; degree of damage to the plants (% damage), Maize (Maize): 0%; degree of damage to the plants (% damage), Digitaria (Digitaria): 100%; degree of damage to the plants (% damage), Matricaria (Matricaria): 100%; degree of damage to the plants (% damage), Cotton (Cotton): 0%

Question: With CCC(CCc1ccccn1)Nc1nc(N)nc(C(C)(C)F)n1 (stereo not drawn) [Example 22] as the molecule, how does the “degree of damage to the plants (% damage), Galium” value (Galium [9]) read?
Answer: The value was 80%.

Question: What about the activity against weeds (weeds [3]) of the same molecule?
Answer: Its activity against weeds is “strong activity”.

Question: What about the “degree of damage to the plants (% damage), Abutilon” value (Abutilon [4]; 1000 g of ai./ha) of the same molecule?
Answer: Its value is 70%.

Question: And the pest or weed control at 1000 g/ha (Amaranthus [10])?
Answer: The pest or weed control at 1000 g/ha was 95%.

Question: And the pest or weed control at 1000 g/ha (Setaria [11])?
Answer: The pest or weed control at 1000 g/ha was 80%.

Question: What about the “degree of damage to the plants (% damage), Xanthium” value (Xanthium [12]) of the same molecule?
Answer: The value was 70%.

Question: And the “degree of damage to the plants (% damage), Alopecurus” value (from here on “degree … (% damage), Alopecurus”) (Alopecurus [5]; 1000 g of ai./ha)?
Answer: Its value is 90%.

Question: And the “degree of damage to the plants (% damage), Veronica” value (Veronica [13])?
Answer: Its value is 100%.

Question: And the “degree of damage to the plants (% damage), Wheat” value (Wheat [14])?
Answer: Its value is 0%.

Question: And the “degree of damage to the plants (% damage), Galium” value (Galium [6]; 1000 g of ai./ha)?
Answer: The value was 100%.

Question: And the “degree of damage to the plants (% damage), Solanum” value (Solanum)?
Answer: Its value is 100%.

Question: And the “degree of damage to the plants (% damage), Viola” value (Viola)?
Answer: The value was 100%.

Question: And the activity against weeds (weeds [7])?
Answer: The activity against weeds was “strong activity”.

Question: And the pest or weed control at 1000 g/ha (Abutilon [8])?
Answer: Its pest or weed control at 1000 g/ha is 100%.

Question: What about the pest or weed control at 1000 g/ha (Amaranthus [15]) of the same molecule?
Answer: Its pest or weed control at 1000 g/ha is 95%.

Question: What about the “degree of damage to the plants (% damage), Setaria” value (Setaria [16]) of the same molecule?
Answer: The value was 70%.

Question: And the “degree of damage to the plants (% damage), Chenopodium” value (Chenopodium)?
Answer: The value was 100%.

Question: What about the “degree of damage to the plants (% damage), Cotton” value (Cotton) of the same molecule?
Answer: The value was 0%.

Question: CCC(CCc1ccsc1)Nc1nc(N)nc(C(C)(C)F)n1 (stereo not drawn) [Example 33] was tested. Which “degree … (% damage), Alopecurus” value (Alopecurus [17]) did it give?
Answer: The value was 80%.

Question: What about the “degree of damage to the plants (% damage), Cyperus” value (Cyperus) of the same molecule?
Answer: The value was 90%.

Question: And the “degree of damage to the plants (% damage), Avena fatua” value (Avena fatua)?
Answer: Its value is 100%.

Question: What about the activity against weeds (weeds [3]) of the same molecule?
Answer: The activity against weeds was “strong activity”.

Question: What about the “degree of damage to the plants (% damage), Abutilon” value (Abutilon [4]; 1000 g of ai./ha) of the same molecule?
Answer: Its value is 100%.

Question: And the pest or weed control at 1000 g/ha (Amaranthus [10])?
Answer: Its pest or weed control at 1000 g/ha is 100%.

Question: What about the pest or weed control at 1000 g/ha (Setaria [11]) of the same molecule?
Answer: The pest or weed control at 1000 g/ha was 100%.

Question: What about the “degree of damage to the plants (% damage), Sinapis” value (Sinapis [18]) of the same molecule?
Answer: Its value is 100%.

Question: And the “degree … (% damage), Alopecurus” value (Alopecurus [5]; 1000 g of ai./ha)?
Answer: The value was 100%.

Question: What about the activity against weeds (weeds [7]) of the same molecule?
Answer: The activity against weeds was “strong activity”.

Question: What about the pest or weed control at 1000 g/ha (Abutilon [8]) of the same molecule?
Answer: The pest or weed control at 1000 g/ha was 90%.

Question: What about the pest or weed control at 1000 g/ha (Amaranthus [15]) of the same molecule?
Answer: Its pest or weed control at 1000 g/ha is 100%.

Question: And the “degree of damage to the plants (% damage), Setaria” value (Setaria [16])?
Answer: Its value is 100%.

Question: What about the “degree of damage to the plants (% damage), Xanthium” value (Xanthium [19]) of the same molecule?
Answer: Its value is 90%.

Question: What about the “degree of damage to the plants (% damage), Sinapis” value (Sinapis [20]) of the same molecule?
Answer: Its value is 100%.
